Values of other authors, collected in patent US20260108502A1, “ORAL DELIVERY FORMULATIONS USING SELF EMULSIFYING GRANULES AND LIPID BASED GRANULES” (BOARD OF REGENTS, THE UNIVERSITY OF TEXAS SYSTEM, priority 2024, published 2026).

Q: With `CC(C)c1nc(CN(C)C(=O)N[C@H](C(=O)N[C@@H](Cc2ccccc2)C[C@H](O)[C@H](Cc2ccccc2)NC(=O)OCc2cncs2)C(C)C)cs1` [Ritonavir] as the compound, how does the “strongest basic pKa” value read?
A: The value was 2.84.
